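Tested at 5 concentrations; 48 h exposure; 96-well plates; endpoints linearly interpolated, else capped at highest concentration. GI50 = concentration required for 50% inhibition of growth. At the TGI there is no net growth.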
Assays:
Experiment in all cases: inhibition of tumour cell growth, NCI panel, 48 h
[1] = tested on: OVCAR-3 ovarian
[2] = tested on: NCI-H23 lung
[3] = tested on: SNB-75 CNS
[4] = tested on: UO-31 renal
[5] = tested on: SF-539 CNS
[6] = tested on: A498 renal
[7] = tested on: RXF 393 renal
[8] = tested on: MALME-3M melanoma
[9] = tested on: KM12 colon
[10] = tested on: COLO 205 colon

| SMILES | TGI [1] | TGI [2] | TGI [3] | TGI [4] | TGI [5] | TGI [6] | TGI [7] | TGI [8] | TGI [9] | TGI [10] | GI50 [1] | GI50 [10] | GI50 [4] | GI50 [5] | GI50 [6] | GI50 [8] | GI50 [9] | GI50 [2] | GI50 [3] | GI50 [7] |
| --- | --- | --- | --- | --- | --- | --- | --- | --- | --- | --- | --- | --- | --- | --- | --- | --- | --- | --- | --- | --- |
| O=C1/C(=C/c2ccc(Cl)cc2)CCC1CCN1CCOCC1 (stereo unspecified) | > 100 µM | > 100 µM | > 100 µM | > 100 µM | > 100 µM | > 100 µM | > 100 µM | > 100 µM | > 100 µM |  |  |  |  |  |  |  |  |  |  |  |
| CC(=O)Oc1c2c(c(O)c3ccccc13)C(n1cnc3c(ncn3C3OC(CO)C4OC(C)(C)OC43)c1=N)CCC2 (stereo unspecified) | 27.8 µM | 36.7 µM | 32.3 µM | 29.8 µM | 32.2 µM | 33.3 µM | 32.3 µM | 23.4 µM | 29 µM | 37.6 µM |  |  |  |  |  |  |  |  |  |  |
| COc1ccc2c(c1)C(=O)c1c-2c(N2CCN(C(=O)CNCCNCCO)CC2)nc2ccccc12 | 31.2 µM |  |  | 4.54 µM | 10.6 µM | 20.2 µM |  | 5.97 µM | 5.79 µM | 4.19 µM | 11.7 µM | 2.17 µM | 1.89 µM | 3.08 µM | 8.32 µM | 2.55 µM | 2.48 µM |  |  |  |
| O=C1OCC2=C1C(c1cccc(Br)c1)c1cc3c(cc1N2CCO)CCC3 (stereo unspecified) | 0.153 µM | 8.42 µM | 9.41 µM | 8.2 µM | 5.46 µM | 0.199 µM | 1.61 µM | 12.1 µM | 1.04 µM | 0.263 µM | 0.0339 µM | 0.111 µM | 0.0997 µM | 0.0801 µM | 0.0155 µM | 0.066 µM | 0.0329 µM | 0.136 µM | 0.0607 µM | 0.0263 µM |
| CCOc1ccc(NC(=O)C(=O)CC(=O)c2c(C)n([O-])c3ccccc3[n+]2=O)cc1 | > 100 µM | > 100 µM | > 100 µM | > 100 µM | > 100 µM | > 100 µM | > 100 µM | > 100 µM | > 100 µM | > 100 µM |  |  |  |  |  |  |  |  |  |  |
| O=c1ccn([C@H]2CSC[C@@H](CO)C2)c(=O)[nH]1 | > 100 µM | > 100 µM | > 100 µM | > 100 µM | > 100 µM | > 100 µM |  | > 100 µM | > 100 µM |  |  |  |  |  |  |  |  |  |  |  |
| OCC1OC(c2nc(C3=NCCCN3)cs2)C(O)C1O (stereo unspecified) | > 10 µM | > 100 µM |  | > 100 µM | > 100 µM | > 100 µM |  | > 100 µM | > 10 µM | > 100 µM |  |  |  |  |  |  |  |  |  |  |
| COc1cc2c(cc1OCCCNC(=O)c1cccc3c(=O)c4ccccc4[nH]c13)N=C[C@@H]1CCCN1C2=O | 6.64 µM | < 0.0225 µM |  | 16.9 µM | < 0.01 µM | 0.0225 µM | 0.301 µM | 0.388 µM | 13.2 µM | 0.0437 µM |  | < 0.01 µM |  | < 0.01 µM | < 0.01 µM |  |  | < 0.01 µM |  | 0.0865 µM |
| Cc1[nH]c2ccccc2c1C(=O)/C=C/c1ccccc1O | > 100 µM | > 100 µM | > 100 µM | > 100 µM |  | > 100 µM | > 100 µM | > 100 µM | > 100 µM | > 100 µM |  |  |  |  |  |  |  |  |  |  |
| Cn1cc(-c2csc(-c3c[nH]c4ccc(F)cc34)n2)c2cnccc21 | 3.32 µM | 3.25 µM | 2.85 µM | 2.73 µM | 3.04 µM | 3.31 µM | 3.25 µM | 3.46 µM | 3.49 µM |  | 1.83 µM |  | 1.42 µM | 1.63 µM | 1.87 µM | 1.94 µM | 1.83 µM | 1.62 µM | 1.5 µM | 1.78 µM |
| COC1(OC)C(N(C)C)=C(Cl)C(=O)/C1=C/C=O | > 100 µM | > 100 µM |  | > 100 µM |  | > 100 µM |  | > 100 µM |  | > 100 µM |  |  |  |  |  |  |  |  |  |  |
| O=C(Nc1nc(=S)c2c(ncn2CCOC(=O)c2ccccc2)[nH]1)c1ccccc1 | > 100 µM |  | 47.5 µM | > 100 µM | 94.3 µM | > 100 µM | 59.2 µM | > 100 µM | > 100 µM | > 100 µM |  |  |  |  |  |  |  |  |  |  |
| Cn1cc(NC(=O)Nc2cc(C(=O)Nc3cc(C(=O)Nc4ccc(S(=O)(=O)O)c5cc(S(=O)(=O)O)ccc45)n(C)c3)n(C)c2)cc1C(=O)Nc1cc(C(=O)Nc2ccc(S(=O)(=O)O)c3cc(S(=O)(=O)O)ccc23)n(C)c1 | > 100 µM | > 100 µM | > 100 µM | > 100 µM | > 100 µM |  | > 100 µM | > 100 µM | > 100 µM | > 100 µM |  |  |  |  |  |  |  |  |  |  |
| COc1ccc(CC2NCCc3c2[nH]c2ccccc32)cc1 (stereo unspecified) | > 100 µM |  | > 100 µM | > 100 µM | > 100 µM | > 100 µM |  |  | > 100 µM | 40.6 µM |  |  |  |  |  |  |  |  |  |  |
| O=C(c1ccccc1Br)C(F)(F)F | > 100 µM | > 100 µM | > 100 µM | > 100 µM | > 100 µM | > 100 µM |  | > 100 µM | > 100 µM | > 100 µM |  |  |  |  |  |  |  |  |  |  |
| CO/N=C(\COc1ccc2c(c1)oc(=O)c1cc(OC)ccc12)c1ccc(OC)cc1 | > 100 µM | > 100 µM |  | > 100 µM | > 100 µM | > 100 µM | > 100 µM | > 100 µM | > 100 µM | > 100 µM | > 100 µM | > 100 µM | > 100 µM | > 100 µM | > 100 µM | > 100 µM | > 100 µM | > 100 µM |  | > 100 µM |
| CCC(C)COC(=O)c1ccc(N=Cc2ccc(C=Nc3ccc(C(=O)OCC(C)CC)cc3)cc2)cc1 (stereo unspecified) | > 100 µM | > 100 µM | > 100 µM | > 100 µM | > 100 µM | > 100 µM | > 100 µM | > 100 µM |  | > 100 µM |  |  |  |  |  |  |  |  |  |  |
| Cc1c2c(C#N)nccc2c(C)c2c1c1ccccc1n2Cc1ccccc1 | > 100 µM | > 100 µM | > 100 µM | > 100 µM | > 100 µM |  | > 100 µM | > 100 µM | > 100 µM | > 100 µM |  |  |  |  |  |  |  |  |  |  |
